Experimental data from ChEMBL document CHEMBL3871282, “Neo-tanshinlactone D-ring modified novel analogues induce apoptosis in human breast cancer cell via DNA damage” (Bioorg Med Chem, 2017).

Experiments:
[1] = Cytotoxicity against human breast cancer cells assessed as cell growth inhibition after 3 days by SRB assay; assay type: functional, Cancer cell lines
[2] = Cytotoxicity against human MCF7 ER positive, PR positive/negative,HER2 negative cells assessed as cell growth inhibition after 24 hrs by MTT assay; assay type: functional, cell-based; conditions: MCF7, 24 h
[3] = Cytotoxicity against human SKBR3 ER negative, PR negative,HER2 positive cells assessed as cell growth inhibition after 24 hrs by MTT assay; assay type: functional, cell-based; conditions: SK-BR-3, 24 h
[4] = Cytotoxicity against human MDA-MB-231 ER negative, PR negative,HER2 negative cells assessed as cell growth inhibition after 24 hrs by MTT assay; assay type: functional, cell-based; conditions: MDA-MB-231, 24 h
[5] = Cytotoxicity against human HCT116 cells assessed as cell growth inhibition after 24 hrs by MTT assay; assay type: functional, cell-based; conditions: HCT-116, 24 h
[6] = Cytotoxicity against human HepG2 cells assessed as cell growth inhibition after 24 hrs by MTT assay; assay type: functional, cell-based; conditions: HepG2, 24 h
[7] = Cytotoxicity against human HeLa cells assessed as cell growth inhibition after 24 hrs by MTT assay; assay type: functional, cell-based
[8] = Cytotoxicity against human WI38 cells assessed as cell growth inhibition after 24 hrs by MTT assay; assay type: toxicity, cell-based, WI-38
[9] = Cytotoxicity against human HaCaT cells assessed as cell growth inhibition after 24 hrs by MTT assay; assay type: toxicity, cell-based

Row | Structure (SMILES) | GI [1] | IC50 [2] | IC50 [3] | IC50 [4] | IC50 [5] | IC50 [6] | IC50 [7] | IC50 at 24 h [8] | IC50 at 24 h [9]
1 | Cc1cccc2c1ccc1c3occ(C)c3c(=O)oc21 | 9.65 µM |  |  |  |  |  |  |  | 
2 | O=c1cc(OCc2nc3ccccc3[nH]2)c2ccc3ccccc3c2[nH]1 |  | 0.0383 µM | 0.103 µM | 0.117 µM | 0.0672 µM | 44.2 µM | 34.9 µM | > 100 µM | > 100 µM
3 | O=C(Oc1cc(=O)[nH]c2c1ccc1ccccc12)c1ccccc1 |  | 30.6 µM | 42.6 µM | 49.3 µM | 64 µM | 83.1 µM | 81 µM |  | 
4 | O=C(/C=C/c1ccc([N+](=O)[O-])cc1)Oc1cc(=O)[nH]c2c1ccc1ccccc12 |  | 37.9 µM | 38.4 µM | 43.9 µM | 76.1 µM | 99.1 µM | 90 µM |  | 
5 | O=C(Oc1cc(=O)[nH]c2c1ccc1ccccc12)c1ccc(F)cc1F |  | 63.4 µM | 67.1 µM | 70.2 µM | 92.8 µM | 67.5 µM | 68.9 µM |  | 
6 | CC(C)CC(=O)Oc1cc(=O)[nH]c2c1ccc1ccccc12 |  | 11.9 µM | 39.8 µM | 57.4 µM | 27.6 µM | 73.1 µM | 45.4 µM |  | 
7 | O=c1cc(OCc2ccc([N+](=O)[O-])cc2)c2ccc3ccccc3c2[nH]1 |  | 0.0665 µM | 0.153 µM | 0.181 µM | 0.0881 µM | 41.3 µM | 39.7 µM | > 100 µM | > 100 µM
8 | O=c1cc(OS(=O)(=O)c2ccc(F)cc2)c2ccc3ccccc3c2[nH]1 |  | 132 µM | 144 µM | 157 µM | 168 µM | > 200 µM | > 200 µM |  | 
9 | COc1ccc(COc2cc(=O)[nH]c3c2ccc2ccccc23)cc1 |  | 0.0487 µM | 0.166 µM | 0.178 µM | 0.0752 µM | 42.2 µM | 42.7 µM | > 100 µM | > 100 µM
10 | O=c1cc(OS(=O)(=O)c2ccc(C(F)(F)F)cc2)c2ccc3ccccc3c2[nH]1 |  | 120 µM | 131 µM | 139 µM | 150 µM | > 200 µM | > 200 µM |  | 
11 | O=C(Oc1cc(=O)[nH]c2c1ccc1ccccc12)c1ccc([N+](=O)[O-])cc1 |  | 45.9 µM | 56.4 µM | 69.4 µM | 84.1 µM | 103 µM | 85.3 µM |  | 
12 | CCC(=O)Oc1cc(=O)[nH]c2c1ccc1ccccc12 |  | 20.9 µM | 30.6 µM | 34.5 µM | 52 µM | 55.1 µM | 59.2 µM |  | 
13 | CCCC(=O)Oc1cc(=O)[nH]c2c1ccc1ccccc12 |  | 11.3 µM | 31.1 µM | 38.2 µM | 23.3 µM | 35.2 µM | 62 µM |  | 
